According to BindingDB's records for doi:10.1021/acsmedchemlett.5b00489 (Peking Union Medical College, 2016):

Test: Antagonist activity at human recombinant CXCR2 assessed as inhibition of CXCL1-induced neutrophil chemotaxis after 45 mins by calcein-AM dye based plate reader method

Compound	IC50 [nM]
O=C(Nc1ccc(Cl)c(S(=O)(=O)C2CCOCC2)c1O)Nc1cccc(Cl)c1Cl	6.3
CC(C)S(=O)(=O)c1c(Cl)ccc(NC(=O)Nc2cccc(Cl)c2Cl)c1O	158
CC(C)S(=O)(=O)c1c(Cl)ccc(NC(=O)Nc2cccc(F)c2Cl)c1O	10
CCN1CCN(S(=O)(=O)c2c(Cl)ccc(NC(=O)Nc3cccc(F)c3Cl)c2O)CC1	2000
CN1CCC(S(=O)(=O)c2c(Cl)ccc(NC(=O)Nc3cccc(F)c3Cl)c2O)CC1	25
O=C(Nc1ccc(Cl)c(S(=O)(=O)N2CCNCC2)c1O)Nc1cccc(Cl)c1Cl	10000
CN1CCN(S(=O)(=O)c2c(Cl)ccc(NC(=O)Nc3cccc(Cl)c3Cl)c2O)CC1	1000
CCS(=O)(=O)c1c(Cl)ccc(NC(=O)Nc2cccc(Cl)c2Cl)c1O	6310
O=C(Nc1ccc(Cl)c(S(=O)(=O)C2CCOC2)c1O)Nc1cccc(Cl)c1Cl (configuration not stated)	7.9
C[C@@H]1CN(S(=O)(=O)c2c(Cl)ccc(NC(=O)Nc3cccc(F)c3Cl)c2O)C[C@H](C)O1	3160
CC(C)(C)S(=O)(=O)c1c(Cl)ccc(NC(=O)Nc2cccc(F)c2Cl)c1O	40
CN1CCC(S(=O)(=O)c2c(Cl)ccc(NC(=O)Nc3cccc(Cl)c3Cl)c2O)CC1	158
CC(C)N1CCN(S(=O)(=O)c2c(Cl)ccc(NC(=O)Nc3cccc(F)c3Cl)c2O)CC1	2000
CN1CCC2(CCC(S(=O)(=O)c3c(Cl)ccc(NC(=O)Nc4cccc(F)c4Cl)c3O)CC2)CC1	25
C[C@@H]1CN(S(=O)(=O)c2c(Cl)ccc(NC(=O)Nc3cccc(Cl)c3Cl)c2O)C[C@H](C)O1	15800
CN1CC[C@H](S(=O)(=O)c2c(Cl)ccc(NC(=O)Nc3cccc(F)c3Cl)c2O)C1	79
O=C(Nc1ccc(Cl)c(S(=O)(=O)C2CCC2)c1O)Nc1cccc(F)c1Cl	13
CN1CC2(CC(S(=O)(=O)c3c(Cl)ccc(NC(=O)Nc4cccc(F)c4Cl)c3O)C2)C1	631

Continued, values first:

IC50 [nM]	Compound
7.9	O=C(Nc1ccc(Cl)c(C(=O)N2CCCC2)c1O)Nc1cccc(F)c1Cl
100	CN1CCC[C@H](S(=O)(=O)c2c(Cl)ccc(NC(=O)Nc3cccc(F)c3Cl)c2O)CC1
158	CCN1CCC(S(=O)(=O)c2c(Cl)ccc(NC(=O)Nc3cccc(F)c3Cl)c2O)CC1
316	NS(=O)(=O)c1c(Cl)ccc(NC(=O)Nc2cccc(Cl)c2Cl)c1O
79	O=C(Nc1ccc(Cl)c(S(=O)(=O)C2CCCCC2)c1O)Nc1cccc(F)c1Cl
25	O=C(Nc1ccc(Cl)c(S(=O)(=O)C2CCCC2)c1O)Nc1cccc(F)c1Cl
316	CN1CCN(S(=O)(=O)c2c(Cl)ccc(NC(=O)Nc3cccc(F)c3Cl)c2O)CC1
6.3	O=C(Nc1ccc(Cl)c(C(=O)N2CCCCC2)c1O)Nc1cccc(F)c1Cl
251	CN1CC[C@H](S(=O)(=O)c2c(Cl)ccc(NC(=O)Nc3cccc(Cl)c3Cl)c2O)C1
